# According to US7371560B2, “Photosynthetic hydrogen production” (priority 2003, dated 2008):
# How the values were obtained:
# [1] = tested on: Chlamydomonas reinhardtii Stm6 cultures; assay: H2 production ± CCCP, Clark type hydrogen electrode, Stm6 cultures; format: cell-based
# Description: (§1) H2 concentrations were measured in the liquid phase and the gaseous head space above, both for WT and Stm6 cultures (cell density of OD750 nm=0.8). Dissolved H2 concentrations were measured in 1 liter dark-adapted cell cultures in TAP medium replete with, or depleted of, sulfur using a Clark type hydrogen electrode (Unisense PA2000, Denmark) upon white light illumination. H2 concentrations in the presence and absence of 5 μM carbonylcyanide m-chlorophenylhydrazone (CCCP) were measured using dark adapted cultures (1 h) before and after illumination (white light, 300 μmol m^−2·s^−1) The H2 concentration in the gaseous head space was measured using a mass spectrometer (Delta Finnigan MAT). Cell cultures were dark-adapted for 30 min in a weak vacuum to deplete the medium and headspace of O2 and H2, prior to illumination with continuous or pulsed (3.3 Hz frequency, 5 μs flashes; light intensity range of 15-3000 μmol·m^−2·s^−1) white light.
# [2] = tested on: Chlamydomonas reinhardtii WT cultures; assay: H2 production ± CCCP, Clark type hydrogen electrode, WT cultures; format: cell-based; settings: CCCP added to WT culture
# Description: as §1
smiles,measurement,setting,value
"N#CC(C#N)=NNc1cccc(Cl)c1 [CCCP, carbonylcyanide m-chlorophenylhydrazone]",period of increased H2 production with CCCP,"[1]; 5 μM CCCP, Stm6 culture",at least 30 min
same,"H2 production rate with CCCP, higher than in the WT","[1]; 5 μM CCCP, dark adapted cultures (1 h), white light 300 μmol m^−2·s^−1, relative to WT",~1500%
same,"H2 production rate in the presence of CCCP, times higher than the WT","[1]; Stm6 in the presence of CCCP, relative to WT",15 ×
same,effect of CCCP on H2 production,[2],hardly any effect
